Assay results taken from patent US20240158446A1, “CYCLIC COMPOUND HAVING SELECTIVE INHIBITORY ACTION ON KRAS OVER HRAS AND NRAS” (CHUGAI SEIYAKU KABUSHIKI KAISHA, priority 2021, published 2024).
pKd: −log10 of the molar value. Like-named read-outs stand apart in the source and are kept apart here. *1 amine or outer side, *2 acyl side, *3 side chain or, on linkers, in order; H or OH if unused. Where a SMILES comes first, the peptide text is derived from it. Bridges are numbered along the chain shown (N, C = ends). [ ]: non-standard residue; d: D form. The star is where a group is joined. hPhe(3-Cl-4-CF3) = N[C@@H](CCc1ccc(C(F)(F)F)c(Cl)c1)C(=O)O; X45 = O=C([C@H](Cc1ccc(C(F)(F)F)cc1)N(CCCF)[*:1])[*:2]; NPrPhe(4-CF3) = CCCN[C@@H](Cc1ccc(C(F)(F)F)cc1)C(=O)O; Piperazinyl(4-(3-oxetanyl)) = C1OCC1N1CCN(*)CC1; NMeGly(cPent) = CN[C@H](C(=O)O)C1CCCC1; Hyp = O=C(O)[C@@H]1C[C@@H](O)CN1; NMeD = CN[C@@H](CC(=O)O)C(=O)O; NMeL = CN[C@@H](CC(C)C)C(=O)O; Morpholide = C1CN(*)CCO1; NMeA = CN[C@@H](C)C(=O)O; Ac5c = NC1(C(=O)O)CCCC1; Aze = O=C(O)[C@@H]1CCN1; Ac4c = NC1(C(=O)O)CCC1; NEtG = CCNCC(=O)O; Sar = CNCC(=O)O

Tests used:
[1] = target: GDP-bound KRAS wild-type protein (Homo sapiens, UniProt P01116); assay: Binding to KRAS by surface plasmon resonance (SPR), Single Cycle Kinetics; conditions: GDP-bound KRAS wild-type protein, 1:1 binding model, read-out: KRAS KD
Chain of GDP-bound KRAS wild-type protein (P01116 whole entry): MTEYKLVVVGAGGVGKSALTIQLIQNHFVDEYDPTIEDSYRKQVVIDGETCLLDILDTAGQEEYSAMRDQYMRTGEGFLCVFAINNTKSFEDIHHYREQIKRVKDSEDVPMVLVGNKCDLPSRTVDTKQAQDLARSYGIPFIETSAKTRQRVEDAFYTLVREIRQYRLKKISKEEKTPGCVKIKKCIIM

[2] = target: GDP-bound NRAS wild-type protein (Homo sapiens, UniProt P01111); assay: Binding to NRAS by surface plasmon resonance (SPR), Single Cycle Kinetics; conditions: for NRAS/KRAS (ratio of KD value for NRAS to KD value for KRAS) / NRAS/KRAS (ratio of KD value with respect to NRAS to KD value with respect to KRAS): SPR, GDP-bound NRAS wild-type protein vs GDP-bound KRAS wild-type protein
Chain of GDP-bound NRAS wild-type protein (P01111 whole entry): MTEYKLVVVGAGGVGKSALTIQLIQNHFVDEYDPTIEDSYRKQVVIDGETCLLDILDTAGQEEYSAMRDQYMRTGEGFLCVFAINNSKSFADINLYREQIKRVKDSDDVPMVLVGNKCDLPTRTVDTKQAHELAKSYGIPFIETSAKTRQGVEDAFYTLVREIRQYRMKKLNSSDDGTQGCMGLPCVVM

[3] = target: GDP-bound HRAS wild-type protein (Homo sapiens, UniProt P01112); assay: Binding to HRAS by surface plasmon resonance (SPR), Single Cycle Kinetics; conditions: for HRAS/KRAS (ratio of KD value for HRAS to KD value for KRAS) / HRAS/KRAS (ratio of KD value with respect to HRAS to KD value with respect to KRAS): SPR, GDP-bound HRAS wild-type protein vs GDP-bound KRAS wild-type protein
Chain of GDP-bound HRAS wild-type protein (P01112 whole entry): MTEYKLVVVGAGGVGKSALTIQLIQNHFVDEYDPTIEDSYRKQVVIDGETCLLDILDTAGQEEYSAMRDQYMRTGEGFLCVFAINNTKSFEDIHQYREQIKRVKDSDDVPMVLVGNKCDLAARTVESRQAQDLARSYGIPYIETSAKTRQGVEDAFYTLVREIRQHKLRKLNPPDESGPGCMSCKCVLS

SMILES	pKd ([1]; SPR Single Cycle Kinetics)	NRAS/KRAS (ratio of KD value for NRAS to KD value for KRAS) [2]	HRAS/KRAS (ratio of KD value for HRAS to KD value for KRAS) [3]	NRAS/KRAS (ratio of KD value with respect to NRAS to KD value with respect to KRAS) [2]	HRAS/KRAS (ratio of KD value with respect to HRAS to KD value with respect to KRAS) [3]	also measured
CCCN1C(=O)[C@@H]2CCN2C(=O)[C@H](C)N(C)C(=O)[C@H]([C@@H](C)CC)NC(=O)[C@H](CC(C)C)N(C)C(=O)C[C@@H](C(=O)N2CCN(C3COC3)CC2)N(C)C(=O)[C@H](C2CCCC2)N(C)C(=O)C2(CCCC2)NC(=O)[C@@H]2CCCN2C(=O)[C@H](CCc2ccc(C(F)(F)F)c(Cl)c2)NC(=O)CN(C)C(=O)[C@@H]1Cc1ccc(C(F)(F)F)cc1 [PP0184] ([NMeL]I[NMeA][Aze][NPrPhe(4-CF3)][Sar][hPhe(3-Cl-4-CF3)]P[Ac5c][NMeGly(cPent)][NMeD]-{Piperazinyl(4-(3-oxetanyl))}; lactam N-11)	9.49	C (A compound having a KD ratio of 0.1 or more and less than 3 is denoted as C)	B (a compound having 3 or more and less than 10 is denoted as B)	–	–	–
CCO[C@@H]1C[C@H]2C(=O)NC3(CC(C)(C)C3)C(=O)N(C)[C@@H](C3CCCC3)C(=O)N(C)[C@H](C(=O)N(C)CC)CC(=O)N(C)[C@@H](CC(C)C)C(=O)N[C@@H]([C@@H](C)CC)C(=O)N(C)CC(=O)N(C)[C@H]3C/C=C\CCN(C3=O)[C@@H](Cc3ccc(C(F)F)cc3)C(=O)N(C)CC(=O)N[C@@H](CCc3ccc(C(F)(F)F)c(OC)c3)C(=O)N2C1 [PP2828]	9.96	–	–	–	–	NRAS/KRAS (ratio of KD value with respect to GDP-bound NRAS wild-type protein to KD value with respect to KRAS) ([2]; SPR KD ratio NRAS/KRAS, class symbols): A (a compound having 10 or more and less than 20 is denoted as A); HRAS/KRAS (ratio of KD value with respect to GDP-bound HRAS wild-type protein to KD value with respect to KRAS) ([3]; SPR KD ratio HRAS/KRAS, class symbols): A (a compound having 10 or more and less than 20 is denoted as A)
CCO[C@@H]1C[C@H]2C(=O)NC3(CCC3)C(=O)N(C)[C@@H](C3CCCC3)C(=O)N(CC)[C@H](C(=O)N(C)C)CC(=O)N(C)[C@@H](CC)C(=O)N[C@@H]([C@@H](C)CC)C(=O)N(C)CC(=O)N(C)[C@H]3CCCCN(C3=O)[C@@H](Cc3ccc(C(F)(F)F)cc3)C(=O)N(C)CC(=O)N[C@@H](CCc3cc(F)c(C(F)(F)F)c(F)c3)C(=O)N2C1 [PP0643]	10.13	–	–	C (A compound having a KD ratio of 0.1 or more and less than 3 is denoted as C)	B (a compound having 3 or more and less than 10 is denoted as B)	–
CC[C@H](C)[C@@H]1NC(=O)[C@H](CC(C)C)N(C)C(=O)C[C@@H](C(=O)N2CCOCC2)N(C)C(=O)[C@H](C2CCCC2)N(C)C(=O)C2(CCCC2)NC(=O)[C@@H]2CCCN2C(=O)[C@H](CCc2ccc(C(F)(F)F)c(Cl)c2)NC(=O)CN(C)C(=O)[C@H](Cc2ccc(C(F)(F)F)cc2)N(CCCF)C(=O)CN(C)C(=O)CN(C)C1=O [PP0524] ([NMeL]I[Sar][Sar][X45][Sar][hPhe(3-Cl-4-CF3)]P[Ac5c][NMeGly(cPent)][NMeD]-Morpholide; lactam N-11)	9.96	–	–	B (a compound having 3 or more and less than 10 is denoted as B)	C (A compound having a KD ratio of 0.1 or more and less than 3 is denoted as C)	–
CCO[C@@H]1C[C@H]2C(=O)NC3(CC(F)(F)C3)C(=O)N(C)[C@@H](C3CCCC3)C(=O)N(C)C(C3CCCCC3)CC(=O)N(C)[C@@H](COC)C(=O)N[C@@H]([C@@H](C)CC)C(=O)N(C)CC(=O)N(C)[C@H]3C/C=C\CCN(C3=O)[C@@H](Cc3ccc(C(F)(F)F)cc3)C(=O)N(C)CC(=O)N[C@@H](CCc3cc(F)c(C(F)(F)F)c(F)c3)C(=O)N2C1 (stereo partly drawn) [PP1586]	–	–	–	–	–	pKd ([1]; SPR, Single Cycle Kinetics): 9.12; NRAS/KRAS (ratio of KD value for NRAS to KD value for KRAS) ([2]; KD ratio class): A (a compound having 10 or more and less than 20 is denoted as A); HRAS/KRAS (ratio of KD value for HRAS to KD value for KRAS) ([3]; KD ratio class): A (a compound having 10 or more and less than 20 is denoted as A)
CCCN1C(=O)[C@@H]2CCN2C(=O)CN(C)C(=O)[C@H]([C@@H](C)CC)NC(=O)[C@H](CC(C)C)N(C)C(=O)C[C@@H](C(=O)N2CCOCC2)NC(=O)[C@H](C2CCCC2)N(C)C(=O)C2(CCCC2)NC(=O)[C@@H]2CCCN2C(=O)[C@H](CCc2ccc(C(F)(F)F)c(Cl)c2)NC(=O)CN(C)C(=O)[C@@H]1Cc1ccc(C(F)(F)F)cc1 [PP0349] ([NMeL]I[Sar][Aze][NPrPhe(4-CF3)][Sar][hPhe(3-Cl-4-CF3)]P[Ac5c][NMeGly(cPent)]D-Morpholide; lactam N-11)	9.14	C (A compound having a KD ratio of 0.1 or more and less than 3 is denoted as C)	B (a compound having 3 or more and less than 10 is denoted as B)	–	–	–
CC[C@H](C)[C@@H]1NC(=O)[C@H](CC2CC2)N(C)C(=O)C[C@@H](C(=O)N2CCCC2)N(C)C(=O)[C@H](C2CCCC2)N(C)C(=O)C2(CCC2)NC(=O)[C@@H]2CC(F)(F)CN2C(=O)[C@H](CCc2cc(F)c(C(F)(F)F)c(F)c2)NC(=O)CN(C)C(=O)[C@H](Cc2ccc(C(F)(F)F)cc2)N2CC/C=C\C[C@@H](C2=O)N(C)C(=O)CN(C)C1=O [PP1512]	–	–	–	–	–	pKd ([1]; SPR, Single Cycle Kinetics): 10.08; NRAS/KRAS (ratio of KD value for NRAS to KD value for KRAS) ([2]; KD ratio class): AA (a compound having 20 or more is denoted as AA); HRAS/KRAS (ratio of KD value for HRAS to KD value for KRAS) ([3]; KD ratio class): A (a compound having 10 or more and less than 20 is denoted as A)

Continued by rising pKd ([1]; SPR Single Cycle Kinetics), values first:

pKd ([1]; SPR Single Cycle Kinetics)	SMILES	NRAS/KRAS (ratio of KD value for NRAS to KD value for KRAS) [2]	HRAS/KRAS (ratio of KD value for HRAS to KD value for KRAS) [3]	NRAS/KRAS (ratio of KD value with respect to NRAS to KD value with respect to KRAS) [2]	HRAS/KRAS (ratio of KD value with respect to HRAS to KD value with respect to KRAS) [3]	also measured
9.44	CC[C@H](C)[C@@H]1NC(=O)[C@H](CC(C)C)N(C)C(=O)C[C@@H](C(=O)N2CCOCC2)N(C)C(=O)[C@H](C2CCCC2)N(C)C(=O)C2(CCCC2)NC(=O)[C@@H]2CCCN2C(=O)[C@H](CCc2cc(F)c(C(F)(F)F)c(F)c2)NC(=O)CN(C)C(=O)[C@H](Cc2ccc(C(F)(F)F)cc2)N2CCCC[C@@H](C2=O)N(C)C(=O)[C@@H]2CCCN2C1=O [PP0547]	–	–	B (a compound having 3 or more and less than 10 is denoted as B)	B (a compound having 3 or more and less than 10 is denoted as B)	–
9.82	CCCN1C(=O)CN(C)C(=O)CN(CC)C(=O)[C@H]([C@@H](C)CC)NC(=O)[C@H](CC(C)C)N(C)C(=O)C[C@@H](C(=O)N2CCOCC2)N(C)C(=O)[C@H](C2CCCC2)N(C)C(=O)C2(CCC2)NC(=O)[C@@H]2C[C@@H](OCC)CN2C(=O)[C@H](CCc2ccc(C(F)(F)F)c(Cl)c2)NC(=O)CN(C)C(=O)[C@@H]1Cc1ccc(C(F)(F)F)cc1 [PP0401] ([NMeL]I[NEtG][Sar][NPrPhe(4-CF3)][Sar][hPhe(3-Cl-4-CF3)][Hyp](Et)[Ac4c][NMeGly(cPent)][NMeD]-Morpholide; lactam N-11)	B (a compound having 3 or more and less than 10 is denoted as B)	B (a compound having 3 or more and less than 10 is denoted as B)	–	–	–
9.96	CC[C@H](C)[C@@H]1NC(=O)[C@H](CC(C)C)N(C)C(=O)C[C@@H](C(=O)N2CCOCC2)N(C)C(=O)[C@H](C2CCCC2)N(C)C(=O)C2(CCCC2)NC(=O)[C@@H]2C[C@H](OC)CN2C(=O)[C@H](CCc2cc(F)c(C(F)(F)F)c(F)c2)NC(=O)CN(C)C(=O)[C@H](Cc2ccc(C(F)(F)F)cc2)N2CCCC[C@@H](C2=O)N(C)C(=O)CN(C)C1=O [PP0557]	–	–	B (a compound having 3 or more and less than 10 is denoted as B)	B (a compound having 3 or more and less than 10 is denoted as B)	–
